Experimental data published in patent US7595398B2, “N-(5-membered aromatic ring)-amido anti-viral compounds” (SmithKline Beecham Corporation, priority 2005, dated 2009).

These compounds were tested on HCV replicon I389luc-ubi-neo/NS3-3′/ET in ET (Huh-lucubineo-ET) cells; screening for HCV RNA dependent RNA polymerase (assay: Replicon Assay (luciferase, ET cell line Huh-lucubineo-ET)). Settings: Hepatitis C virus; inhibition of replication relative to no compound control; test concentration of 10 μM according to the fitted equation; luciferase 48-72 hours.
Assay type: cell-based
Protocol: A cell line, ET (Huh-lucubineo-ET) was used for screening of compounds of the present invention for HCV RNA dependent RNA polymerase. The ET cell line was stably transfected with RNA transcripts harboring a I389luc-ubi-neo/NS3-3′/ET; replicon with firefly luciferase-ubiquitin-neomycin phosphotransferase fusion protein and EMCV-IRES driven NS3-5B polyprotein containing the cell culture adaptive mutations (E1202G; T12801; K1846T) (Krieger at al, 2001 and unpublished). The ET cells were grown in DMEM, supplemented with 10% fetal calf serum, 2 mM Glutamine, Penicillin (100 IU/mL)/Streptomycin (100 μg/mL), 1× nonessential amino acids, and 250 μg/mL G418 (“Geneticin”). They were all available through Life Technologies (Bethesda, Md.). The cells were plated at 0.5-1.0×10^4 cells/well in the 96 well plates and incubated for 24 hrs before adding nucleoside analogs. […] Luciferase activity were measured 48-72 hours later by adding a lysis buffer and the substrate (Catalog number Glo-lysis buffer E2661 and Bright-Glo luciferase system E2620 Promega, Madison, Wis.). Cells should not be too confluent during the assay. Percent inhibition of replication was plotted relative to no compound control. Under the same condition, cytotoxicity of the compounds was determined using cell proliferation reagent, WST-1(Roche, Germany). The compounds showing antiviral activities, but no significant cytotoxicities were chosen to determine IC50 and TC50. For these determinations, 10 concentrations of each compound were used. Concentrations for test compounds typically span a range of 500 fold. IC50 and TC50 values were calculated by fitting % inhibition at each concentration (I) to the following equation: % inhibition=100%/[1+10^(log IC50−log (I))*b] where b is Hill's coefficient.
In the case of `Cc1ccc(-c2csc(NC(=O)[C@@H]3CCCN3C(=O)OCc3ccccc3)n2)cc1` [Compound 5022, 2-(4-p-Tolyl-thiazol-2-ylcarbamoyl)-pyrrolidine-1-carboxylic acid benzyl ester], the inhibition at 10 µM is reported as 56%.
For `CC(C)CC1CC(C)(c2csc(NC(=O)[C@@H]3CCCN3C(=O)OCc3ccccc3)n2)OC1=O` (stereo in doubt) [Compound 5009, 2-[4-(4-Isobutyl-2-methyl-5-oxo-tetrahydro-furan-2-yl)-thiazol-2-ylcarbamoyl]-pyrrolidine-1-carboxylic acid benzyl ester], the inhibition at 10 µM was 63.4%.
In the case of `O=C(Nc1cccc(-c2csc(NC(=O)C3CCCN3C(=O)OCc3ccccc3)n2)c1)C1CCCC1` (stereo not drawn) [Compound 5026, 2-{4-[3-(Cyclopentanecarbonyl-amino)-phenyl]-thiazol-2-ylcarbamoyl}-pyrrolidine-1-carboxylic acid benzyl ester], the inhibition at 10 µM is reported as 100%.
For `O=C(Nc1nc(Sc2nnc(-c3ccccc3)o2)cs1)[C@@H]1CCCN1C(=O)OCc1ccccc1` [Compound 5010, 2-[4-(5-Phenyl-[1,3,4]oxadiazol-2-ylsulfanyl)-thiazol-2-ylcarbamoyl]-pyrrolidine-1-carboxylic acid benzyl ester], the inhibition at 10 µM was 6.41%.
For `O=C(Nc1nc2cc3ccccc3cc2s1)[C@@H]1CCCN1C(=O)OCc1ccccc1` [Compound 5035, 2-(Naphtho[2,3-d]thiazol-2-ylcarbamoyl)-pyrrolidine-1-carboxylic acid benzyl ester], the inhibition at 10 µM was 100%.
Compound `O=C(Nc1nc(-c2ccc3c(c2)Cc2ccccc2-3)cs1)[C@@H]1CCCN1C(=O)OCc1ccccc1` [Compound 5058, 2-[4-(9H-Fluoren-2-yl)-thiazol-2-ylcarbamoyl]-pyrrolidine-1-carboxylic acid benzyl ester] has an inhibition at 10 µM of 18.6%.
`O=C(NC1CC1)c1ccc(-c2csc(NC(=O)[C@@H]3CCCN3C(=O)Cc3ccc(F)cc3)n2)cc1` [Compound 5323, 1-[2-(4-Fluoro-phenyl)-acetyl]-pyrrolidine-2-carboxylic acid [4-(4-cyclopropylcarbamoyl-phenyl)-thiazol-2-yl]-amide] gave an inhibition at 10 µM of 81.5%.
Compound `O=C(Nc1nc(-c2ccc([N+](=O)[O-])cc2)cs1)[C@@H]1CCCN1C(=O)OCc1ccccc1` [Compound 5041, 2-[4-(4-Nitro-phenyl)-thiazol-2-ylcarbamoyl]-pyrrolidine-1-carboxylic acid benzyl ester] has an inhibition at 10 µM of 76%.
Compound `O=C(Nc1nc(-c2ccc(Br)cc2)cs1)[C@@H]1CCCN1C(=O)OCc1ccccc1` [Compound 5097, 2-[4-(4-Bromo-phenyl)-thiazol-2-ylcarbamoyl]-pyrrolidine-1-carboxylic acid benzyl ester] has an inhibition at 10 µM of 43.3%.
For `COc1c(F)c(F)c(-c2csc(NC(=O)[C@@H]3CCCN3C(=O)OCc3ccccc3)n2)c(F)c1F` [Compound 5020, 2-[4-(2,3,5,6-Tetrafluoro-4-methoxy-phenyl)-thiazol-2-ylcarbamoyl]-pyrrolidine-1-carboxylic acid benzyl ester], the inhibition at 10 µM was 58.2%.
`Cc1sc2nc(SCc3csc(NC(=O)[C@@H]4CCCN4C(=O)OCc4ccccc4)n3)n(C)c(=O)c2c1C` [Compound 5032, 2-[4-(3,5,6-Trimethyl-4-oxo-3,4-dihydro-thieno[2,3-d]pyrimidin-2-ylsulfanylmethyl)-thiazol-2-ylcarbamoyl]-pyrrolidine-1-carboxylic acid benzyl ester] gave an inhibition at 10 µM of 38.6%.
Work on `O=C(Nc1nc(-c2ccc(F)cc2F)cs1)[C@@H]1CCCN1C(=O)OCc1ccccc1` [Compound 5023, 2-[4-(2,4-Difluoro-phenyl)-thiazol-2-ylcarbamoyl]-pyrrolidine-1-carboxylic acid benzyl ester] yielded an inhibition at 10 µM of 76.5%.
For `O=C(Nc1nc(-c2ccco2)cs1)[C@@H]1CCCN1C(=O)OCc1ccccc1` [Compound 5347, 2-(4-Furan-2-yl-thiazol-2-ylcarbamoyl)-pyrrolidine-1-carboxylic acid benzyl ester], the inhibition at 10 µM was 94.7%.
Work on `O=C(Nc1nc(-c2ccc(S(=O)(=O)NC3CC3)cc2)cs1)C1CCCN1C(=O)OCc1ccccc1` (stereo not drawn) [Compound 5378, 2-[4-(4-Cyclopropylsulfamoyl-phenyl)-thiazol-2-ylcarbamoyl]-pyrrolidine-1-carboxylic acid benzyl ester] yielded an inhibition at 10 µM of 98.3%.
`O=C(NC1CC1)c1ccc(-c2csc(NC(=O)C3CCCN3C(=O)CCc3ccccc3)n2)cc1` (stereo not drawn) [Compound 5358, 1-(3-Phenyl-propionyl)-pyrrolidine-2-carboxylic acid [4-(4-cyclopropylcarbamoyl-phenyl)-thiazol-2-yl]-amide] was tested, and the inhibition at 10 µM was 84.8%.
In the case of `O=C(NC1CC1)c1ccc(-c2csc(NC(=O)[C@@H]3COCN3C(=O)OCc3ccccc3)n2)cc1` [Compound 5313, 4-[4-(4-Cyclopropylcarbamoyl-phenyl)-thiazol-2-ylcarbamoyl]-oxazolidine-3-carboxylic acid benzyl ester], the inhibition at 10 µM is reported as 100%.
`O=C(Nc1ncc(Cc2ccc(Cl)cc2Cl)s1)[C@@H]1CCCN1C(=O)OCc1ccccc1` [Compound 5031, 2-[5-(2,4-Dichloro-benzyl)-thiazol-2-ylcarbamoyl]-pyrrolidine-1-carboxylic acid benzyl ester] was tested, and the inhibition at 10 µM was 2.85%.
Compound `O=C(Nc1nc(-c2ccc(C(=O)N3CCN(CCO)CC3)cc2)cs1)[C@@H]1CCCN1C(=O)OCc1ccccc1` [Compound 5377, 2-(4-{4-[4-(2-Hydroxy-ethyl)-piperazine-1-carbonyl]-phenyl}-thiazol-2-ylcarbamoyl)-pyrrolidine-1-carboxylic acid benzyl ester] has an inhibition at 10 µM of 5.71%.
`COC(=O)c1sc(NC(=O)[C@@H]2CCCN2C(=O)OCc2ccccc2)nc1-c1ccc(C(=O)NC2CC2)cc1` [Compound 5362, 2-[(1-Benzyloxycarbonyl-pyrrolidine-2-carbonyl)-amino]-4-(4-cyclopropylcarbamoyl-phenyl)-thiazole-5-carboxylic acid methyl ester] showed an inhibition at 10 µM of 98.7%.
Compound `O=C(NC1CC1)c1ccc(-c2csc(NC(=O)[C@@H]3CCCN3C(=O)C3(c4ccccc4)CC3)n2)cc1` [Compound 5371, 1-(1-Phenyl-cyclopropanecarbonyl)-pyrrolidine-2-carboxylic acid [4-(4-cyclopropylcarbamoyl-phenyl)-thiazol-2-yl]-amide] has an inhibition at 10 µM of 100%.
Compound `Nc1cccc(-c2csc(NC(=O)C3CCCN3C(=O)OCc3ccccc3)n2)c1` (stereo not drawn) [Compound 5001, 2-[4-(3-Amino-phenyl)-thiazol-2-ylcarbamoyl]-pyrrolidine-1-carboxylic acid benzyl ester] has an inhibition at 10 µM of 99.6%.
`O=C(Nc1ccc(-c2csc(NC(=O)C3CCCN3C(=O)OCc3ccccc3)n2)cc1)C1CCCC1` (stereo not drawn) [Compound 5006, 2-{4-[4-(Cyclopentanecarbonyl-amino)-phenyl]-thiazol-2-ylcarbamoyl}-pyrrolidine-1-carboxylic acid benzyl ester] was tested, and the inhibition at 10 µM was 99.9%.
`O=C(Nc1ccc(-c2csc(NC(=O)[C@@H]3CCC(=O)N3C(=O)OCc3ccccc3)n2)cc1)C1CC1` [Compound 5366, 2-{4-[4-(Cyclopropanecarbonyl-amino)-phenyl]-thiazol-2-ylcarbamoyl}-5-oxo-pyrrolidine-1-carboxylic acid benzyl ester] showed an inhibition at 10 µM of 99.3%.
`O=C(Nc1nc(-c2ccc(-n3nncc3-c3ccccc3)cc2)cs1)[C@@H]1CCCN1C(=O)OCc1ccccc1` [Compound 5104, 2-{4-[4-(5-Phenyl-[1,2,3]triazol-1-yl)-phenyl]-thiazol-2-ylcarbamoyl}-pyrrolidine-1-carboxylic acid benzyl ester] showed an inhibition at 10 µM of 97.3%.
